ChEMBL document CHEMBL1201862, “PubChem BioAssay data set” (2004)
Calls of active or inactive are those of the source. Cut-off read from the data, not from the text of the source, for most assays here: actives have a measured EC50 and inactives only a lower limit.

Key:
[1] = target: Transitional endoplasmic reticulum ATPase (Homo sapiens, UniProt P55072, C522A); assay: C522A mutant p97 ATPase inhibitors, dose response, counter-screen for p97 inhibitor project, biochemical, luminescence (AID 1544)
[2] = target: Transitional endoplasmic reticulum ATPase (Homo sapiens, UniProt P55072); assay: p97 ATPase inhibitors, dose response, biochemical (AID 1534)
Aminopeptidase N = target: T1, Aminopeptidase N (Plasmodium falciparum FcB1/Columbia, UniProt O96935); assay: P. falciparum M1AAP inhibitors, biochemical, fluorogenic H-Leu-NHMec substrate, 1536-well (AID 1445); parameters: species or system Plasmodium falciparum 3D7, 3D7
T1 sequence (O96935 whole entry): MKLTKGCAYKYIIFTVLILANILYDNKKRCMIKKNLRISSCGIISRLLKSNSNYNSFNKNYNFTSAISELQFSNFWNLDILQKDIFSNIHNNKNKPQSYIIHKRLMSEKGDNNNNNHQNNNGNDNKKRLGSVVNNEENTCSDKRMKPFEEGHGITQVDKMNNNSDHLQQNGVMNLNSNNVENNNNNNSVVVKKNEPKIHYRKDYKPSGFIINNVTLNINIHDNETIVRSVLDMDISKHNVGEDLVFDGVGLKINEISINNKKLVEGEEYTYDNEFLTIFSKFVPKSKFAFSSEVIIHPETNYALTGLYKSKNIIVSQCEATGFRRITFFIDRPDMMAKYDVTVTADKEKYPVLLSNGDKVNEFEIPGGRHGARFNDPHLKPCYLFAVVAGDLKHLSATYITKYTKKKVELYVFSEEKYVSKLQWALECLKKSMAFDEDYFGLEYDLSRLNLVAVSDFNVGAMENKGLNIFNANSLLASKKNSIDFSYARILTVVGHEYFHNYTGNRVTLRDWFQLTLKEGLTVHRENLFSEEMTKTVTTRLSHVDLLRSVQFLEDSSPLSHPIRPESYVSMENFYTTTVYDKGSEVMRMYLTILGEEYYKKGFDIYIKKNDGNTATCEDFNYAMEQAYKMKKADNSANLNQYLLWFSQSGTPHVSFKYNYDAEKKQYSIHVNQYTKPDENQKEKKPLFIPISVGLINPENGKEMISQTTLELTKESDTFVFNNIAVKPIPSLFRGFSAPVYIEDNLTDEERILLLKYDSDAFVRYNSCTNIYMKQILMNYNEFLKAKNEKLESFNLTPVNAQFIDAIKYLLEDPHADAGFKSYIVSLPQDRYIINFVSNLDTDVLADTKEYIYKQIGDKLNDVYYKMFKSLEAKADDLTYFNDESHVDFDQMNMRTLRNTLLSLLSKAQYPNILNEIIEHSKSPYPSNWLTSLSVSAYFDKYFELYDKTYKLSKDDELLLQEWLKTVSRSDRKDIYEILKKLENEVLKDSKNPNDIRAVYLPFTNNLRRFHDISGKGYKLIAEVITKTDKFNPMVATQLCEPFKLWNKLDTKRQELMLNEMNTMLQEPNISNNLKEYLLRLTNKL

[3] = target: Signal transducer and activator of transcription 3 (Homo sapiens, UniProt P40763); assay: STAT3 activators, late-stage profile, late-stage follow-up, cell-based, STAT1 reporter, BCL3 qPCR, cytotoxicity, panel member STAT3 Activation (AID 2049)
[4] = target: T2, Alkaline phosphatase, tissue-nonspecific isozyme (Homo sapiens, UniProt P05186)
T2 sequence (P05186 whole entry): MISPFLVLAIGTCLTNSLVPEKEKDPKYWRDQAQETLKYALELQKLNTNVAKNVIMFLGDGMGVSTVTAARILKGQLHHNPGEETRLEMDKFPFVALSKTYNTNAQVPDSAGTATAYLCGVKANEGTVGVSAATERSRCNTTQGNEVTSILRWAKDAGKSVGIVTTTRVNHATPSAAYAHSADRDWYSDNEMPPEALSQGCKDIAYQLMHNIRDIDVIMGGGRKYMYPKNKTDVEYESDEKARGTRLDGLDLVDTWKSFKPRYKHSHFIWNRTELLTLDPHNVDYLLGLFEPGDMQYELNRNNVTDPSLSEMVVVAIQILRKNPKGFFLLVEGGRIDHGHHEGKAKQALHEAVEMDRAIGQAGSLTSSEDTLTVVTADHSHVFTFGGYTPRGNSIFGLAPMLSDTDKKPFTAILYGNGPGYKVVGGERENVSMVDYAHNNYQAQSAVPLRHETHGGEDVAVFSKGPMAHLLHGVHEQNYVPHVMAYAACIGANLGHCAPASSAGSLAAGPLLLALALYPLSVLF

[5] = target: Lysosomal acid glucosylceramidase (Homo sapiens, UniProt P04062); assay: Dose response cell-based high throughput screening assay to identify enhancers of beta-glucosidase activity. [Related pubchem assays: 784 ]; format: functional
Trypanosoma cruzi = assay: growth inhibition of intracellular Trypanosoma cruzi, dose response, cell-based, plate reader, dry powder, set 3 (AID 493197); format: functional
[6] = inhibitors of SNCA 5'UTR-driven translation, confirmation, luminescence, H4 neuroglioblastoma cells, dose confirmation (AID 2454); format: functional, cell-based;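 note: H4 neuroglioblastoma cells carrying an alpha-synuclein 5'UTR luciferase reporter; potency for inhibition of the luciferase signal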
[7] = luciferase reporter signal reduction – luminescence, H4-C neuroglioblastoma cells, dose response (AID 2458); format: functional, cell-based;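 note: H4 neuroglioblastoma cells stably carrying a luciferase reporter gene fusion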
INS1 = assay: beta cell apoptosis inhibitors, cytokine rescue, dose response, luminescence, retest (AID 449756); format: functional, cell-based; settings: Rattus norvegicus;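 note: cell death triggered by IL-1 beta plus TNF-alpha plus IFN-gamma mixture; protective hits raise ATP signal compared with cytokine alone wells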
[8] = C. albicans growth with fluconazole, confirmation, fluorescence, retest (AID 2467); format: functional, cell-based
[9] = inhibitors of intracellular T. cruzi replication, confirmation, NIH3T3 host cells, beta-gal luminescence (AID 2044); format: functional, cell-based;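 note: intracellular parasites grown in NIH/3T3 mouse fibroblasts as host cells; luminescent beta-galactosidase reporter signal from transgenic T. cruzi replicating inside host cells; inhibitors lower the luminescence signal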
cells = format: functional, cell-based
[10] = target: T3, Serine/threonine-protein phosphatase (Candida dubliniensis (strain CD36 / CBS 7987 / NCPF 3949 / NRRLY-17841) (Yeast), UniProt B9W6M3); assay: calcineurin pathway inhibitors in yeast reporter, dose response, S. cerevisiae, CDRE-lacZ, luminescence, secondary (AID 2388); format: functional, cell-based;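 note: yeast reporter cells carrying a calcineurin-responsive lacZ construct stimulated with calcium chloride; luminescent beta-galactosidase reporter signal in whole cells rather than isolated phosphatase activity; potency for inhibition where a drop in reporter signal means calcineurin blockade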
T3 sequence (B9W6M3 whole entry): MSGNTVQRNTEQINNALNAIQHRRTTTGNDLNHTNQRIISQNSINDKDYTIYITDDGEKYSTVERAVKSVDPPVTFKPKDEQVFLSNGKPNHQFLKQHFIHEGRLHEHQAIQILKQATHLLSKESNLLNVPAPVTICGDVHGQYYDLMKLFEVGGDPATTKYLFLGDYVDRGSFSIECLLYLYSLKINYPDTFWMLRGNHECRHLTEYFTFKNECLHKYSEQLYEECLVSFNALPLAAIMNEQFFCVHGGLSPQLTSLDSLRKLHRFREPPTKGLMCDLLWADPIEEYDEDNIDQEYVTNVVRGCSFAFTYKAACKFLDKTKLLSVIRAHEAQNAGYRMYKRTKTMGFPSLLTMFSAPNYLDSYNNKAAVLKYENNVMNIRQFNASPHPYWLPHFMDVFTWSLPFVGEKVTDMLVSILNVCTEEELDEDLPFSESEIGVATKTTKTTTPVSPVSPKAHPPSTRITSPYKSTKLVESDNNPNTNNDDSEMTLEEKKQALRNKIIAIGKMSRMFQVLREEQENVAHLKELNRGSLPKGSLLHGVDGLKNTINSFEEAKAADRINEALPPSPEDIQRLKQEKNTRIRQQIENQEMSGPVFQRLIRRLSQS

[11] = inhibitors of SNCA 5'UTR-driven reporter translation, confirmation, H4 neuroglioma cells, luminescence (AID 1988); format: functional, cell-based
[12] = target: ATP-dependent molecular chaperone HSP82 (Candida albicans (strain WO-1) (Yeast), UniProt C4YTQ8); assay: loss of DOC-induced GRE-beta-galactosidase reporter signal, dose response, Hsp90 inhibitor project, S. cerevisiae, luminescence (AID 2400); format: functional, cell-based;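 note: beta-galactosidase luminescence from glucocorticoid response element reporter as proxy for Hsp90 function; inhibitor potency where signal loss means Hsp90 inhibition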
[13] = target: G-protein coupled receptor 55 (Homo sapiens, UniProt Q9Y2T6); assay: GPR55 agonists via beta-arrestin recruitment, primary screen, imaging, U2OS cells, beta-arrestin-GFP redistribution (AID 1961); format: functional
Streptokinase A = target: T4, Streptokinase A (Streptococcus pyogenes serotype M1, UniProt P10520); assay: S. pyogenes streptokinase expression inhibitors, potency, dose response, plasminogen activation absorbance, OD405 (AID 1914); format: functional, Streptococcus pyogenes M1 GAS;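 note: secreted streptokinase activity via plasminogen activation per viability signal from cell pellet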
T4 sequence (P10520 whole entry): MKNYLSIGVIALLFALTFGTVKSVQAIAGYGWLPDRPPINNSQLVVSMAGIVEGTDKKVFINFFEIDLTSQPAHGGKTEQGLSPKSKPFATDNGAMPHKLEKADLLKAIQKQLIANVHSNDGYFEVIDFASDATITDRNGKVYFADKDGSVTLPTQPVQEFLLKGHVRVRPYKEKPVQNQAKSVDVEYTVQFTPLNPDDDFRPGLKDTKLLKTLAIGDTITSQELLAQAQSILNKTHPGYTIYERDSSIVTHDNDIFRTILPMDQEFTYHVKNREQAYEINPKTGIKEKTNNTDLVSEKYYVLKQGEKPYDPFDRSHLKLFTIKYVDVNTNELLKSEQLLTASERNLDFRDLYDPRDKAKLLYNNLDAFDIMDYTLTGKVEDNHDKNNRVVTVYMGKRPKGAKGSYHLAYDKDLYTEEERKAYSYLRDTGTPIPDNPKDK

Streptococcus = assay: Group A Streptococcus viability loss, dose response, counter-screen for streptokinase expression inhibitor project, luminescence, BacTiterGlo (AID 1915); format: functional, organism-based;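 note: potency for reduction of bacterial viability or growth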
[14] = cytotoxicity toward NIH3T3 fibroblasts, dose response, counter-screen, cell-based, ATP luminescence, mouse fibroblasts (AID 2010); format: functional;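 note: cells exposed to compound for about 90 hours before reading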
[15] = system: Streptococcus sp. 'group A'; assay: growth inhibition of control SK(-) GAS strain, dose response, counter-screen for streptokinase expression inhibitor project, luminescence, kanamycin, BacTiterGlo, confirmation (AID 1900); format: functional, organism-based
[16] = NIH-3T3 fibroblast cytotoxicity, dose response, cytotoxicity control, cell-based, fluorescence, Alamar Blue, secondary assay (AID 2327); format: functional;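 note: NIH-3T3 mouse fibroblasts cultured with fluconazole at 8 µg/mL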

Lysosomal acid glucosylceramidase, sequence (P04062 whole entry): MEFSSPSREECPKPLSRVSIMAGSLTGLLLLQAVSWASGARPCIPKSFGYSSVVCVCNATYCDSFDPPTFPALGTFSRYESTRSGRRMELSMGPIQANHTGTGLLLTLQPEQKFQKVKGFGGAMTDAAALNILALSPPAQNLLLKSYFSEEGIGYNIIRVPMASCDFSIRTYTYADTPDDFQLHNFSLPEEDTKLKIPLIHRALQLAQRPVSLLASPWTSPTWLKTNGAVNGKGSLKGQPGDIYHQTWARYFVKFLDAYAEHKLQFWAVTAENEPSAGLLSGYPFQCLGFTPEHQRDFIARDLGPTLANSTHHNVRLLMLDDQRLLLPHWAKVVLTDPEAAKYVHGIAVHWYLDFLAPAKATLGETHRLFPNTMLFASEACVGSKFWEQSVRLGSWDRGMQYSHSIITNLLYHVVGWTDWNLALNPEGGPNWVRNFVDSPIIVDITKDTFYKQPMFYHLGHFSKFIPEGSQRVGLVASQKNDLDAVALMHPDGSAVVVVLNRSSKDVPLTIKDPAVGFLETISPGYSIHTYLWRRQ
G-protein coupled receptor 55, sequence (Q9Y2T6 whole entry): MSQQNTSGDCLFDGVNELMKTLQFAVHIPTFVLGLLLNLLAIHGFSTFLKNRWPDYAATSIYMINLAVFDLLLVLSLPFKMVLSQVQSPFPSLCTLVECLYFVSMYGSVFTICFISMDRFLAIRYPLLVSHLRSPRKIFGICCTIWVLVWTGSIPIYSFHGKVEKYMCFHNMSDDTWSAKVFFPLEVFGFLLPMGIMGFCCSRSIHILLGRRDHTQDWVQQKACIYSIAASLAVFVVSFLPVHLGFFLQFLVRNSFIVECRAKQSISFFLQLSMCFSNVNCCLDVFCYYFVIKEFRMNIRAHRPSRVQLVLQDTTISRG
Signal transducer and activator of transcription 3, sequence (P40763 whole entry): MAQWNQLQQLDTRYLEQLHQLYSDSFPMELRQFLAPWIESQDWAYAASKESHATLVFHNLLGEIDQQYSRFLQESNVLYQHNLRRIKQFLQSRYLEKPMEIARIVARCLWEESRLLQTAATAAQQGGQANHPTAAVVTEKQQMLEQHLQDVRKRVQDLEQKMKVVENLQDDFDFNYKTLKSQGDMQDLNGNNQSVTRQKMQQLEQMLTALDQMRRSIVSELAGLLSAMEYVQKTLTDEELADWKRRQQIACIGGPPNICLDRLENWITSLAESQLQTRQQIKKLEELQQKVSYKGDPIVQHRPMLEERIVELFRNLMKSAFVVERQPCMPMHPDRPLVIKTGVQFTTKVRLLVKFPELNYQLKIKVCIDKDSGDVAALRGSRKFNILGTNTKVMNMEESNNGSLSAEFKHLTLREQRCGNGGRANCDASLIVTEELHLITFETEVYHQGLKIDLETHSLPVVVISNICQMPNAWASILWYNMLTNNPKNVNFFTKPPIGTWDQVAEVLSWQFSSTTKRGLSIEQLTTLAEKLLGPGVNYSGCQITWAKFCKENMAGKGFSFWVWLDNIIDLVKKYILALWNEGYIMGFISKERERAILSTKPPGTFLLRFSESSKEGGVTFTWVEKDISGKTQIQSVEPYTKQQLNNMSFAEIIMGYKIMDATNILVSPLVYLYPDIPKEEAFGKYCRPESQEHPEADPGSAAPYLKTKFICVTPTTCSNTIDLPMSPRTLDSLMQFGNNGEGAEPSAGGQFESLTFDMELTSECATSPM
ATP-dependent molecular chaperone HSP82, sequence (C4YTQ8 whole entry): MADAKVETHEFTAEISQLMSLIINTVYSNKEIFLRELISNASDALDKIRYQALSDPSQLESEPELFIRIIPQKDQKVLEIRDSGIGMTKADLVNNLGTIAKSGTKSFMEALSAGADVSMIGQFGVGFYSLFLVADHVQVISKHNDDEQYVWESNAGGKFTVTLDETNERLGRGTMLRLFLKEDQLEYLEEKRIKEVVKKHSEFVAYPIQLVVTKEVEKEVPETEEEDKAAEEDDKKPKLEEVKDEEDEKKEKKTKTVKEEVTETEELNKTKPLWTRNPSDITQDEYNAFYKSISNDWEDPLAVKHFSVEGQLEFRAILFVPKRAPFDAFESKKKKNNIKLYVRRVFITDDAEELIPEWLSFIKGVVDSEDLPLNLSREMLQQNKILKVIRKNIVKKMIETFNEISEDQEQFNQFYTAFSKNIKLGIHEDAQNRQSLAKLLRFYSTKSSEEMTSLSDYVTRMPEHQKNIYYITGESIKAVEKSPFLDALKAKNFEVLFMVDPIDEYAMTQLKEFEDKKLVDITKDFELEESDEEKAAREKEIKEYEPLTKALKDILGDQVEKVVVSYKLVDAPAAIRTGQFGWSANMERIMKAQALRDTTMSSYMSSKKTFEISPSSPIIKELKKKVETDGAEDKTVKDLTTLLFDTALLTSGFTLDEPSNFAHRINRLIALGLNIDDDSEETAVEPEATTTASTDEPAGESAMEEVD
Transitional endoplasmic reticulum ATPase (Homo sapiens, UniProt P55072, C522A), sequence (P55072 2-806 C522A limits assumed): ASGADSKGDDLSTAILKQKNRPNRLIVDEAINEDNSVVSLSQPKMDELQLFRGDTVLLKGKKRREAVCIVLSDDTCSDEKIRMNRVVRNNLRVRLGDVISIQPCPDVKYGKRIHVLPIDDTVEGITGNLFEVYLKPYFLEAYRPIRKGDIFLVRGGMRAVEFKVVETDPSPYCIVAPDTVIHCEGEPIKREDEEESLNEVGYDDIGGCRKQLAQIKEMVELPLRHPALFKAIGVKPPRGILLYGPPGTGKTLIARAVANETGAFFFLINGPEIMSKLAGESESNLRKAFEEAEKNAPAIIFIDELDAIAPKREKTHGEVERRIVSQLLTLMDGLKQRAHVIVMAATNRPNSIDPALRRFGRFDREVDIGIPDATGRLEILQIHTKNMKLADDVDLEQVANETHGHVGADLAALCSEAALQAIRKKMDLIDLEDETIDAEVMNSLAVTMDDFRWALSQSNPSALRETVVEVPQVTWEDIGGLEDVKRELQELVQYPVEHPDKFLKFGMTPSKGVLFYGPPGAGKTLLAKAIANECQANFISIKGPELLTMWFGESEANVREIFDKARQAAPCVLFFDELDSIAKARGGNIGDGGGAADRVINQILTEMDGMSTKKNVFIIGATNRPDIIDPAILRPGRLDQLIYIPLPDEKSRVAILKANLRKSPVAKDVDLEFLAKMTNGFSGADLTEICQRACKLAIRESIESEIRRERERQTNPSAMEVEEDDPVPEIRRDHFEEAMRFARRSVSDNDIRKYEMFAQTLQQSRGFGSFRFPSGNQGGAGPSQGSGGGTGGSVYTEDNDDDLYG
Transitional endoplasmic reticulum ATPase (Homo sapiens, UniProt P55072), sequence (P55072 whole entry): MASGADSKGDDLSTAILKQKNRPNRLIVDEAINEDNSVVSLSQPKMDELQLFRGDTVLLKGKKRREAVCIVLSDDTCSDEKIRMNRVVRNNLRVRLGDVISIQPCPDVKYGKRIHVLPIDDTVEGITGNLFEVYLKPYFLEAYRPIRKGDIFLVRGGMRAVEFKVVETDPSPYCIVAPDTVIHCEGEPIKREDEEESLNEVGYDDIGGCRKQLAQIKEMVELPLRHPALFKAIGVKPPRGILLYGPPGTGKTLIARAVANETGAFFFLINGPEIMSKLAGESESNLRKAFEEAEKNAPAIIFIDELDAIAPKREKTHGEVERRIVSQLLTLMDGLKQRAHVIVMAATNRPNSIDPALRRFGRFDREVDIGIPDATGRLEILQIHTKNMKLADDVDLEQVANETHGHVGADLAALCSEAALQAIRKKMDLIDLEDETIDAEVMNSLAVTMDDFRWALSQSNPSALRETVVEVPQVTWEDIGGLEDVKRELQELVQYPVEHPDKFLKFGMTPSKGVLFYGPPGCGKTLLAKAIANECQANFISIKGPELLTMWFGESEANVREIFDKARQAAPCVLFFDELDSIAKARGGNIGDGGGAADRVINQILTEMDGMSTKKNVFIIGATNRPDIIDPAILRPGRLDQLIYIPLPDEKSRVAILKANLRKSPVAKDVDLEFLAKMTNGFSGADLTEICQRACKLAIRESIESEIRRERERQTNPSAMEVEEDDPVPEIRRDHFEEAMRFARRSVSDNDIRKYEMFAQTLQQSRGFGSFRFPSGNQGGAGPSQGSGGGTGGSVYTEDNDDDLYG

SMILES: COc1ccccc1C(=O)Oc1cc(N)n(S(=O)(=O)c2ccc(C)cc2)n1
- IC50 [1]: > 50 µM (not active)
- IC50 [2]: > 50 µM (not active)
- IC50 (Aminopeptidase N): 99.9 µM (active)

SMILES: CCCc1cc(C(=O)Nc2cc(OC)c(Cl)cc2OC)no1
- EC50 [3]: 0.00815 µM (active)

SMILES: CCC(C)N1CC(=O)C(c2nc3ccccc3[nH]2)=C1N (configuration not stated)
- EC50 [4]: 98.9 µM (not active)

SMILES: CC(C)n1c(S)nc2c1c(=O)[nH]c(=O)n2C
- EC50 [5]: > 50 µM (not active)

SMILES: CCCN1CCC(N2CCCC(C(=O)N(C)CCc3ccc(OC)c(OC)c3)C2)CC1 (configuration not stated)
- AC50 (Trypanosoma cruzi): 16.4 µM (active)

SMILES: CC1CCN(Cc2c(C(=O)N/N=C/c3cc(Br)ccc3O)nnn2-c2nonc2N)CC1
- EC50 [6]: > 12 µM (not active)
- EC50 [7]: 1.79 µM (active)
- AC50 (INS1): 0.365 µM (active)
- EC50 [8]: 0.622 µM (active)
- EC50 [9]: 0.556 µM (active)
- EC50 (cells): 0.982 µM (active)
- EC50 [10]: > 180 µM (inactive)
- EC50 [11]: < 0.1 µM (active)
- EC50 [12]: > 160 µM (inactive)
- EC50 [13]: 1.63 µM (active)
- EC50 (Streptokinase A): 40.3 µM (inconclusive)
- EC50 (Streptococcus): 8.29 µM (active)
- EC50 [14]: 5.24 µM (active)
- EC50 [15]: 4.79 µM (active)
- EC50 [16]: 35.2 µM (inconclusive)
